Measurements taken from the supplement of paper PMC10307832.

What was measured:
Assay in all cases: relative viability (nuclei count vs DMSO), 5 days (fraction); higher = more cells survive
[1] = compound: CC1=C(C=CC(=C1)[N+](=O)[O-])NS(=O)(=O)C2=C(C=CC(=C2)Cl)Cl [FH535] + NC(=O)Nc1cc(-c2cccc(F)c2)sc1C(=O)N[C@H]1CCCNC1 [AZD7762] (partner 0.2 µM)
Outline: (§1)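 Lung cancer cell lines, seeded in 1536-well plates, were treated the following day by pin tool with a single drug or with five library-drug doses (not always all listed) in √10 steps on top of a fixed anchor-drug dose. Cells were fixed and nuclei stained in one step after 5 days, and nuclei were counted. Relative viability is the nuclei count for treated wells divided by that for vehicle wells, reported as medians of duplicate plates.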

[2] = compound: CC1=C(C=CC(=C1)[N+](=O)[O-])NS(=O)(=O)C2=C(C=CC(=C2)Cl)Cl [FH535] + CC1(C)CCC(c2ccc(Cl)cc2)=C(CN2CCN(c3ccc(C(=O)NS(=O)(=O)c4ccc(N[C@H](CCN5CCOCC5)CSc5ccccc5)c(S(=O)(=O)C(F)(F)F)c4)cc3)CC2)C1 [Navitoclax] (partner 0.5 µM)
Outline: as §1

[3] = compound: CC1=C(C=CC(=C1)[N+](=O)[O-])NS(=O)(=O)C2=C(C=CC(=C2)Cl)Cl [FH535] + CC(=O)Nc1cccc(-n2c(=O)n(C3CC3)c(=O)c3c(Nc4ccc(I)cc4F)n(C)c(=O)c(C)c32)c1 [Trametinib] (partner 0.02 µM)
Outline: as §1

[4] = compound: CC1=C(C=CC(=C1)[N+](=O)[O-])NS(=O)(=O)C2=C(C=CC(=C2)Cl)Cl [FH535] + Nc1ncn([C@H]2C[C@H](O)[C@@H](CO)O2)c(=O)n1 [Decitabine] (partner 2 µM)
Outline: as §1

[5] = compound: CC1=C(C=CC(=C1)[N+](=O)[O-])NS(=O)(=O)C2=C(C=CC(=C2)Cl)Cl [FH535] + CCNC(=O)c1noc(-c2cc(C(C)C)c(O)cc2O)c1-c1ccc(CN2CCOCC2)cc1 [Luminespib] (partner 0.01 µM)
Outline: as §1

Row | Cell Line | relative viability ([1]; first compound 0.04 µM) | relative viability ([1]; first compound 0.1265 µM) | relative viability ([1]; first compound 0.4 µM) | relative viability ([1]; first compound 1.265 µM) | relative viability ([2]; first compound 0.04 µM) | relative viability ([2]; first compound 0.1265 µM) | relative viability ([2]; first compound 0.4 µM) | relative viability ([2]; first compound 1.265 µM) | relative viability ([3]; first compound 0.04 µM) | relative viability ([3]; first compound 0.1265 µM) | relative viability ([3]; first compound 0.4 µM) | relative viability ([3]; first compound 1.265 µM) | relative viability ([4]; first compound 0.04 µM) | relative viability ([4]; first compound 0.1265 µM) | relative viability ([4]; first compound 0.4 µM) | relative viability ([4]; first compound 1.265 µM) | relative viability ([5]; first compound 0.04 µM) | relative viability ([5]; first compound 0.1265 µM) | relative viability ([5]; first compound 0.4 µM) | relative viability ([5]; first compound 1.265 µM)
1 | NCI-H1395 | 0.381 | 0.426 | 0.368 | 0.393 | 1 | 1.23 | 1.06 | 0.895 | 0.936 | 1.02 | 1.06 | 0.874 | 0.632 | 0.685 | 0.702 | 0.653 | 0.738 | 0.576 | 0.784 | 0.581
2 | NCI-H1437 | 1.11 | 1.13 | 1.01 | 0.502 | 1.07 | 1.06 | 0.867 | 0.461 | 0.498 | 0.567 | 0.386 | 0.32 | 0.526 | 0.554 | 0.488 | 0.344 | 1.1 | 1 | 0.858 | 0.449
3 | NCI-H1651 | 0.368 | 0.511 | 0.502 | 0.466 | 1.15 | 1.2 | 1.05 | 0.864 | 0.81 | 0.78 | 0.79 | 0.666 | 0.562 | 0.602 | 0.622 | 0.447 | 1.01 | 0.701 | 0.748 | 0.591
4 | NCI-H1666 | 0.727 | 0.899 | 0.772 | 0.747 | 0.934 | 0.956 | 1.07 | 0.693 | 0.861 | 0.869 | 0.905 | 0.69 | 0.718 | 0.686 | 0.733 | 0.626 | 0.988 | 0.933 | 0.966 | 0.983
5 | NCI-H1734 | 0.562 | 0.603 | 0.563 | 0.554 | 0.802 | 0.902 | 0.86 | 0.735 | 0.574 | 0.671 | 0.656 | 0.558 | 0.501 | 0.501 | 0.56 | 0.471 |  | 0.207 | 0.215 | 0.176
6 | NCI-H1755 | 0.418 | 0.439 | 0.475 | 0.444 | 0.996 | 0.997 | 1.01 | 0.79 | 0.755 | 0.809 | 0.725 | 0.739 | 0.667 | 0.725 | 0.679 | 0.699 | 0.394 | 0.445 | 0.38 | 0.418
7 | NCI-H1792 | 0.646 | 0.79 | 0.539 | 0.577 | 0.611 | 0.673 | 0.587 | 0.377 | 0.493 | 0.504 | 0.455 | 0.394 | 0.564 | 0.523 | 0.506 | 0.457 | 0.441 | 0.433 | 0.436 | 0.263
8 | NCI-H1793 | 0.43 | 0.631 | 0.418 | 0.483 | 0.49 | 0.573 | 0.469 | 0.325 | 0.4 | 0.421 | 0.425 | 0.399 | 0.449 | 0.571 | 0.487 | 0.422 | 0.168 | 0.229 | 0.19 | 0.143
9 | NCI-H1915 | 0.604 | 0.77 | 0.713 | 0.669 | 0.745 | 0.822 | 0.777 | 0.69 | 0.312 | 0.324 | 0.296 | 0.247 | 0.243 | 0.252 | 0.263 | 0.265 | 0.81 | 0.797 | 0.775 | 0.644
10 | NCI-H1944 | 0.316 | 0.527 | 0.588 | 0.48 |  | 1.01 | 0.975 | 0.924 | 0.405 | 0.42 | 0.398 | 0.325 | 0.391 | 0.489 | 0.414 | 0.441 | 0.672 | 0.82 | 0.727 | 0.669
11 | NCI-H1975 | 0.638 | 0.793 | 0.591 | 0.554 | 1.16 | 1.32 | 0.91 | 0.934 | 0.329 | 0.232 | 0.287 | 0.329 | 0.375 | 0.383 | 0.351 | 0.365 | 0.178 | 0.22 | 0.164 | 0.167
12 | NCI-H1993 | 0.927 | 0.704 | 0.626 | 0.532 | 0.946 | 1.01 | 0.838 | 0.695 | 0.57 | 0.566 | 0.496 | 0.52 | 0.563 | 1.13 | 0.357 | 0.613 | 0.87 | 0.736 | 0.55 | 0.449
13 | NCI-H2085 | 1.03 | 1.06 | 0.783 | 0.828 | 1.1 | 1.05 | 1.05 | 0.846 | 0.567 | 0.624 | 0.503 | 0.403 | 0.542 | 0.512 | 0.572 | 0.431 | 0.333 | 0.481 | 0.41 | 0.268
14 | NCI-H2087 | 1.24 | 1.21 | 1.17 | 0.78 | 0.811 | 1.11 | 0.947 | 0.518 | 0.243 | 0.152 | 0.182 | 0.157 | 0.26 | 0.225 | 0.194 | 0.18 | 0.178 | 0.141 | 0.147 | 0.191
15 | NCI-H2126 | 0.973 | 1.05 | 0.857 | 0.874 | 0.779 | 0.875 | 0.778 | 0.628 | 0.541 | 0.624 | 0.535 | 0.392 | 0.59 | 0.582 | 0.574 | 0.415 | 0.841 | 0.919 | 0.868 | 0.514
16 | NCI-H2170 | 0.897 | 1.06 | 0.809 | 0.815 | 0.612 | 0.548 | 0.597 | 0.54 | 0.964 | 0.883 | 0.752 | 0.706 | 0.433 | 0.473 | 0.443 | 0.447 | 0.726 | 0.606 | 0.661 | 0.426
17 | NCI-H2347 | 0.696 | 0.819 | 0.764 | 0.761 | 0.684 | 0.792 | 0.871 | 0.705 | 0.276 | 0.318 | 0.3 | 0.291 | 0.594 | 0.678 | 0.614 | 0.572 | 0.617 | 0.333 | 0.39 | 0.752
18 | NCI-H2405 | 0.665 | 0.794 | 0.641 | 0.5 | 0.762 | 0.976 | 0.868 | 0.448 | 0.56 | 0.651 | 0.611 | 0.531 | 0.688 | 0.75 | 0.689 | 0.571 | 0.76 | 0.752 | 0.602 | 0.605
19 | NCI-H3122 | 1.03 | 0.98 | 0.984 | 0.933 | 1.02 | 1.05 | 1.01 | 0.947 | 0.188 | 0.274 | 0.2 | 0.22 | 0.338 | 0.393 | 0.46 | 0.413 | 0.0802 | 0.122 | 0.0923 | 0.0705
20 | PC-3 [JPC-3] | 0.773 | 0.83 | 0.656 | 0.508 | 0.778 | 0.753 | 0.762 | 0.57 | 0.726 | 0.829 | 0.691 | 0.607 | 0.865 | 0.805 | 0.756 | 0.74 | 0.794 | 0.76 | 0.546 | 0.399
21 | PC-14 | 0.357 | 0.416 | 0.245 | 0.349 | 0.972 | 1.1 | 1.01 | 0.941 | 0.652 | 0.815 | 0.895 | 0.693 | 0.218 | 0.231 | 0.242 | 0.223 | 0.126 | 0.168 | 0.152 | 0.117
22 | RERF-LC-KJ | 0.905 | 1.02 | 0.931 | 0.704 | 1.15 | 0.784 | 1.11 | 0.719 | 0.862 | 0.921 | 0.869 | 0.744 | 0.645 | 0.707 | 0.55 | 0.467 | 1.27 | 1.14 | 1.13 | 0.728
